Reference: patent US11076595B2, “1-(n,n-disubstituted carbamoyl) 4-(substituted sulfonyl)triazolin-5-one derivative, 4-(n,n-disubstituted carbamoyl) 1-(substituted sulfonyl)triazolin-5-one derivative, and herbicide containing said derivative as active ingredient” (HOKKO CHEMICAL INDUSTRY CO., LTD., priority 2017, dated 2021)

Columns and labels:
Type in all cases: in vivo
[1] = tested on: Chenopodium album; experiment: Test Example 14: herbicidal effect test by foliage treatment in upland field; details: 7 days after sowing, 120 g/10a, 14 days after treatment
In short: (§1)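 Post-sowing spray at day 7, 120 g a.i./10 are in 100 L water/10 are; alluvial soil pots, duplicate plots; endpoint day 14, % suppression from dry weight relative to untreated.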

[2] = tested on: crabgrass; experiment: as above; details: 7 days after sowing, 120 g/10a, 14 days after treatment
In short: as §1

[3] = tested on: Monochoria vaginalis; experiment: Test Example 11: herbicidal effect test by soil treatment in paddy field; details: 120 g/10a active ingredient, 14 days after treatment
In short: (§2)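 Pre-emergence paddy test, 120 g a.i./10 are, emulsifiable concentrate diluted in water and added dropwise to ~3 cm flood water right after sowing (30 seeds/species, 0–1 cm depth, fertilized puddled soil). Greenhouse; 2 replicates; dry-weight suppression (%) vs untreated, day 14.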

[4] = tested on: Echinochloa crus-galli; experiment: as above; details: 120 g/10a active ingredient, 14 days after treatment
In short: as §2

[5] = tested on: Lindernia pyxidaria; experiment: as above; details: 120 g/10a active ingredient, 14 days after treatment
In short: as §2

[6] = tested on: Scirpus juncoides; experiment: as above; details: 120 g/10a active ingredient, 14 days after treatment
In short: as §2

[7] = tested on: Chenopodium album; experiment: Test Example 13: herbicidal effect test by soil treatment in upland field; details: 120 g/10a, 14 days after treatment
In short: (§3)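 Pre-emergence soil spray, 1 d post-sowing; emulsifiable concentrate in water, 100 L/10 are, 120 g a.i./10 are. Pots 36 cm^2, alluvial soil, 20 seeds/species in top 1 cm. n=2; read 14 d; suppression % = (1 − treated/untreated mean dry weight) × 100.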

[8] = tested on: Amaranthus viridis; experiment: as above; details: 120 g/10a, 14 days after treatment
In short: as §3

[9] = tested on: Echinochloa crus-galli; experiment: as above; details: 120 g/10a, 14 days after treatment
In short: as §3

[10] = tested on: crabgrass; experiment: as above; details: 120 g/10a, 14 days after treatment
In short: as §3

[11] = tested on: Monochoria vaginalis; experiment: Test Example 12: herbicidal effect test by treatment during growing period in paddy field; details: 120 g/10a; treatment seven days after sowing in flooded paddy pot; assessed 14 days after treatment
In short: (§4)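 Paddy soil + NPK 17:17:17, puddled; 30 seeds/species sown 0–1 cm; flooded ~3 cm, greenhouse. Day 7 post-sowing: EC diluted in water, applied dropwise into water, 120 g a.i./10 are. Day 14 post-treatment: dry weight vs untreated → % suppression; n=2.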

[12] = tested on: Echinochloa crus-galli; experiment: as above; details: 120 g/10a; treatment seven days after sowing in flooded paddy pot; assessed 14 days after treatment
In short: as §4

[13] = tested on: Lindernia pyxidaria; experiment: as above; details: 120 g/10a; treatment seven days after sowing in flooded paddy pot; assessed 14 days after treatment
In short: as §4

[14] = tested on: Scirpus juncoides; experiment: as above; details: 120 g/10a; treatment seven days after sowing in flooded paddy pot; assessed 14 days after treatment
In short: as §4

[15] = tested on: Amaranthus viridis; experiment: Test Example 14: herbicidal effect test by foliage treatment in upland field; details: 7 days after sowing, 120 g/10a, 14 days after treatment
In short: as §1

[16] = tested on: Echinochloa crus-galli; experiment: as above; details: 7 days after sowing, 120 g/10a, 14 days after treatment
In short: as §1

SMILES: CC(C)N(C(=O)n1cnn(S(=O)(=O)C2CC2)c1=O)c1ncc(Cl)cc1Cl [Compound 11-234]
- herbicidal effect, Chenopodium album [1]: 80%
- herbicidal effect, Crabgrass [2]: 90%
- Weed suppression rate (%) Monochoria vaginalis [3]: 80%
- Weed suppression rate (%) Echinochloa crus-galli [4]: 90%
- Weed suppression rate (%) Lindemia pyxidaria [5]: 90%
- Weed suppression rate (%) Scirpus juncoides [6]: 90%
- herbicidal effect, Chenopodium album [7]: 80%
- herbicidal effect, Amaranthus viridis [8]: 90%
- herbicidal effect, Echinochloa crus-galli [9]: 80%
- herbicidal effect, Crabgrass [10]: 90%
- Weed suppression rate (%) Monochoria vaginalis [11]: 90%
- Weed suppression rate (%) Echinochloa crus-galli [12]: 90%
- Weed suppression rate (%) Lindemia pyxidaria [13]: 90%
- Weed suppression rate (%) Scirpus juncoides [14]: 90%
- herbicidal effect, Amaranthus viridis [15]: 90%
- herbicidal effect, Echinochloa crus-galli [16]: 80%

SMILES: CCN(C)S(=O)(=O)n1ncn(C(=O)N(c2ccc(F)cc2F)C(C)C)c1=O [Compound 11-1098]
- herbicidal effect, Chenopodium album [1]: 80%
- herbicidal effect, Crabgrass [2]: 90%
- Weed suppression rate (%) Monochoria vaginalis [3]: 80%
- Weed suppression rate (%) Echinochloa crus-galli [4]: 100%
- Weed suppression rate (%) Lindemia pyxidaria [5]: 100%
- Weed suppression rate (%) Scirpus juncoides [6]: 100%
- herbicidal effect, Chenopodium album [7]: 100%
- herbicidal effect, Amaranthus viridis [8]: 90%
- herbicidal effect, Echinochloa crus-galli [9]: 100%
- herbicidal effect, Crabgrass [10]: 100%
- Weed suppression rate (%) Monochoria vaginalis [11]: 80%
- Weed suppression rate (%) Echinochloa crus-galli [12]: 100%
- Weed suppression rate (%) Lindemia pyxidaria [13]: 70%
- Weed suppression rate (%) Scirpus juncoides [14]: 70%
- herbicidal effect, Amaranthus viridis [15]: 90%
- herbicidal effect, Echinochloa crus-galli [16]: 80%

SMILES: CC(C)N(C(=O)n1cnn(S(=O)(=O)C(C)C)c1=O)c1ncc(Cl)cc1Cl [Compound 11-86]
- herbicidal effect, Chenopodium album [1]: 80%
- herbicidal effect, Crabgrass [2]: 90%
- Weed suppression rate (%) Monochoria vaginalis [3]: 80%
- Weed suppression rate (%) Echinochloa crus-galli [4]: 90%
- Weed suppression rate (%) Lindemia pyxidaria [5]: 80%
- Weed suppression rate (%) Scirpus juncoides [6]: 90%
- herbicidal effect, Chenopodium album [7]: 80%
- herbicidal effect, Amaranthus viridis [8]: 90%
- herbicidal effect, Echinochloa crus-galli [9]: 80%
- herbicidal effect, Crabgrass [10]: 90%
- Weed suppression rate (%) Monochoria vaginalis [11]: 90%
- Weed suppression rate (%) Echinochloa crus-galli [12]: 90%
- Weed suppression rate (%) Lindemia pyxidaria [13]: 90%
- Weed suppression rate (%) Scirpus juncoides [14]: 90%
- herbicidal effect, Amaranthus viridis [15]: 90%
- herbicidal effect, Echinochloa crus-galli [16]: 80%

SMILES: Cc1ccc(N(C(=O)n2cnn(S(=O)(=O)C3CC3)c2=O)C(C)C)c(F)c1 [Compound 11-212]
- herbicidal effect, Chenopodium album [1]: 80%
- herbicidal effect, Crabgrass [2]: 90%
- Weed suppression rate (%) Monochoria vaginalis [3]: 80%
- Weed suppression rate (%) Echinochloa crus-galli [4]: 100%
- Weed suppression rate (%) Lindemia pyxidaria [5]: 90%
- Weed suppression rate (%) Scirpus juncoides [6]: 90%
- herbicidal effect, Chenopodium album [7]: 60%
- herbicidal effect, Amaranthus viridis [8]: 60%
- herbicidal effect, Echinochloa crus-galli [9]: 100%
- herbicidal effect, Crabgrass [10]: 100%
- Weed suppression rate (%) Monochoria vaginalis [11]: 80%
- Weed suppression rate (%) Echinochloa crus-galli [12]: 90%
- Weed suppression rate (%) Lindemia pyxidaria [13]: 80%
- Weed suppression rate (%) Scirpus juncoides [14]: 90%
- herbicidal effect, Amaranthus viridis [15]: 90%
- herbicidal effect, Echinochloa crus-galli [16]: 80%

SMILES: CC(C)N(C(=O)n1cnn(S(=O)(=O)C2CCCCC2)c1=O)c1c(F)cccc1F [Compound 11-296]
- herbicidal effect, Chenopodium album [1]: 70%
- herbicidal effect, Crabgrass [2]: 100%
- Weed suppression rate (%) Monochoria vaginalis [3]: 70%
- Weed suppression rate (%) Echinochloa crus-galli [4]: 100%
- Weed suppression rate (%) Lindemia pyxidaria [5]: 100%
- Weed suppression rate (%) Scirpus juncoides [6]: 100%
- herbicidal effect, Chenopodium album [7]: 70%
- herbicidal effect, Amaranthus viridis [8]: 60%
- herbicidal effect, Echinochloa crus-galli [9]: 100%
- herbicidal effect, Crabgrass [10]: 100%
- Weed suppression rate (%) Monochoria vaginalis [11]: 90%
- Weed suppression rate (%) Echinochloa crus-galli [12]: 100%
- Weed suppression rate (%) Lindemia pyxidaria [13]: 80%
- Weed suppression rate (%) Scirpus juncoides [14]: 90%
- herbicidal effect, Amaranthus viridis [15]: 90%
- herbicidal effect, Echinochloa crus-galli [16]: 100%

SMILES: CC(C)N(C(=O)n1cnn(S(=O)(=O)c2cccs2)c1=O)c1ccc(F)cc1F [Compound 11-1022]
- herbicidal effect, Chenopodium album [1]: 40%
- herbicidal effect, Crabgrass [2]: 70%
- Weed suppression rate (%) Monochoria vaginalis [3]: 90%
- Weed suppression rate (%) Echinochloa crus-galli [4]: 100%
- Weed suppression rate (%) Lindemia pyxidaria [5]: 100%
- Weed suppression rate (%) Scirpus juncoides [6]: 100%
- herbicidal effect, Chenopodium album [7]: 100%
- herbicidal effect, Amaranthus viridis [8]: 70%
- herbicidal effect, Echinochloa crus-galli [9]: 100%
- herbicidal effect, Crabgrass [10]: 100%
- Weed suppression rate (%) Monochoria vaginalis [11]: 90%
- Weed suppression rate (%) Echinochloa crus-galli [12]: 90%
- Weed suppression rate (%) Lindemia pyxidaria [13]: 90%
- Weed suppression rate (%) Scirpus juncoides [14]: 90%
- herbicidal effect, Amaranthus viridis [15]: 0%
- herbicidal effect, Echinochloa crus-galli [16]: 90%

SMILES: CC(C)N(C(=O)n1cnn(S(=O)(=O)CCl)c1=O)c1ccc(F)cc1F [Compound 11-109]
- herbicidal effect, Chenopodium album [1]: 40%
- herbicidal effect, Crabgrass [2]: 90%
- Weed suppression rate (%) Monochoria vaginalis [3]: 90%
- Weed suppression rate (%) Echinochloa crus-galli [4]: 100%
- Weed suppression rate (%) Lindemia pyxidaria [5]: 100%
- Weed suppression rate (%) Scirpus juncoides [6]: 90%
- herbicidal effect, Chenopodium album [7]: 100%
- herbicidal effect, Amaranthus viridis [8]: 90%
- herbicidal effect, Echinochloa crus-galli [9]: 100%
- herbicidal effect, Crabgrass [10]: 100%
- Weed suppression rate (%) Monochoria vaginalis [11]: 90%
- Weed suppression rate (%) Echinochloa crus-galli [12]: 100%
- Weed suppression rate (%) Lindemia pyxidaria [13]: 100%
- Weed suppression rate (%) Scirpus juncoides [14]: 90%
- herbicidal effect, Amaranthus viridis [15]: 40%
- herbicidal effect, Echinochloa crus-galli [16]: 90%

SMILES: Cc1ccc(N(C(=O)n2cnn(S(C)(=O)=O)c2=O)C(C)C)c(F)c1 [Compound 11-26]
- herbicidal effect, Chenopodium album [1]: 80%
- herbicidal effect, Crabgrass [2]: 90%
- Weed suppression rate (%) Monochoria vaginalis [3]: 80%
- Weed suppression rate (%) Echinochloa crus-galli [4]: 90%
- Weed suppression rate (%) Lindemia pyxidaria [5]: 80%
- Weed suppression rate (%) Scirpus juncoides [6]: 90%
- herbicidal effect, Chenopodium album [7]: 80%
- herbicidal effect, Amaranthus viridis [8]: 90%
- herbicidal effect, Echinochloa crus-galli [9]: 80%
- herbicidal effect, Crabgrass [10]: 90%
- Weed suppression rate (%) Monochoria vaginalis [11]: 80%
- Weed suppression rate (%) Echinochloa crus-galli [12]: 90%
- Weed suppression rate (%) Lindemia pyxidaria [13]: 80%
- Weed suppression rate (%) Scirpus juncoides [14]: 90%
- herbicidal effect, Amaranthus viridis [15]: 90%
- herbicidal effect, Echinochloa crus-galli [16]: 80%
